Test results as given in patent EP3250188B1, “PHARMACEUTICAL COMPOSITION COMPRISING APREPITANT AND METHOD FOR THE PREPARATION THEREOF” (Pharmathen S.A., priority 2015, dated 2016).
In brackets after ≈: the same amount, converted by molar mass. Read-outs that look alike come from different tables or passages of the source.

How the values were obtained:
[1] = cited from earlier work
[2] = Solubility study in FeSSIF (HPLC after 30 min stirring and centrifugation); assay type: physicochemical
Description: For the solubility study, a quantity of the solid dispersion equivalent to 10.0 mg of Aprepitant was dissolved in a 100ml volumetric flask with dissolution medium of fed state simulated intestinal fluid (FeSSIF) to a concentration of 0.1mg/ml. The solution was magnetically stirred for 30min and before injected in the HPLC it was centrifuged at 4000rpm for 5min. Finally the drug concentration was equated to the drug solubility. Table 1: Solubility of solid dispersion prepared according to example 1
Table 8: Solubilities of solid dispersions prepared by melt mixing

[3] = Dissolution, USP type II apparatus (paddles), 50 rpm, FeSSIF; assay type: physicochemical
Description: The rate and extent of drug dissolution was studied using a USP type II apparatus (paddles) at 50 rpm. The dissolution medium was a FeSSIF with pH 5.0. Table 2: Dissolution results of amorphous solid dispersions for different ratios of API to polymer compared with that of Aprepitant alone. The dissolution rate of the solid dispersions that present the best solubility was studied in USP II apparatus, 50rpm, FeSSIF medium.

solubility at 30 min ([2]; fed state simulated intestinal fluid (FeSSIF), fessif, thermodynamic from solid, solid dispersions prepared by spray drying, nominal concentration 0.1mg/ml, stirred 30min): 50 µg/mL (≈ 93.6 µM) | Solubility in FeSSIF ([2]; solid dispersions prepared by melt mixing at the stated temperature): 50 µg/mL (≈ 93.6 µM) | % release ([3]; 15 min, FeSSIF medium, melt mixed solid dispersions): 17,37% | % release ([3]; 15 min, FeSSIF pH 5.0, spray dried solid dispersions): 17,37% | % release ([3]; 30 min, FeSSIF medium, melt mixed solid dispersions): 38,74% | % release ([3]; 30 min, FeSSIF pH 5.0, spray dried solid dispersions): 38,74% | % release ([3]; 45 min, FeSSIF medium, melt mixed solid dispersions): 45,34% | % release ([3]; 45 min, FeSSIF pH 5.0, spray dried solid dispersions): 45,34% | % release ([3]; 60 min, FeSSIF medium, melt mixed solid dispersions): 47,38% | % release ([3]; 60 min, FeSSIF pH 5.0, spray dried solid dispersions): 47,38%
SMILES: C[C@@H](O[C@H]1OCCN(Cc2nc(=O)[nH][nH]2)[C@H]1c1ccc(F)cc1)c1cc(C(F)(F)F)cc(C(F)(F)F)c1 [Aprepitant]
solubility ([1]; in acetonitrile): slightly soluble | solubility ([1]; in ethanol): sparingly soluble | solubility ([1]; in isopropyl acetate): sparingly soluble | solubility ([1]; in water): practically insoluble
